Data as given in ChEMBL document CHEMBL1145330, “NMR structure of a potent small molecule inhibitor bound to human keratinocyte fatty acid-binding protein” (J Med Chem, 2006).

How the values were obtained:
[1] = biological target: Fatty acid-binding protein, adipocyte (Homo sapiens, UniProt P15090); assay: Binding affinity to ap2
[2] = biological target: Fatty acid-binding protein 5 (Homo sapiens, UniProt Q01469); assay: Binding affinity to human kFABP
Chain of Fatty acid-binding protein 5 (Q01469 whole entry): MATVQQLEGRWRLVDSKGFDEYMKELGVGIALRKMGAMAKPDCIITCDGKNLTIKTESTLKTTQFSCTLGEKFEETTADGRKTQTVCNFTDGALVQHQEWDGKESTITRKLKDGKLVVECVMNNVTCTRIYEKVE

Chain of Fatty acid-binding protein, adipocyte (P15090 whole entry): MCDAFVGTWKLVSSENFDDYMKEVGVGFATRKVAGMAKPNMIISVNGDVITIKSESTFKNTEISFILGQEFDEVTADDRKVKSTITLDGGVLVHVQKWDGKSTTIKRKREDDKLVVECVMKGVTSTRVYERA

SMILES: OCC(O)c1cccc(OCc2ccccc2Cl)c1OCc1ccccc1Cl (stereo unspecified)
- Ki [1]: > 2000 nM
- Ki [2]: > 2000 nM

SMILES: O=C(O)Cc1cccc(OCc2ccccc2Cl)c1OCc1ccccc1Cl
- Ki [1]: 16 nM

SMILES: O=C(O)C(=O)c1cccc(OCc2ccccc2Cl)c1OCc1ccccc1Cl
- Ki [1]: < 2 nM
- Ki [2]: < 2 nM

SMILES: O=C(O)[C@@H](O)c1cccc(OCc2ccccc2Cl)c1OCc1ccccc1Cl
- Ki [1]: 2.5 nM
